Source: patent publication US20260151403A1, “NEK7 DEGRADERS AND METHODS OF USE THEREOF” (Captor Therapeutics S.A., priority 2022, published 2026)

Key:
[1] = biological target: T1, [NEK7]-[compound of formula (I)]-[CRBN/DDB1] complex (Homo sapiens, UniProt Q8TDX7+Q96SW2); assay: AlphaLISA dose response ternary complex formation assay; format: binding; conditions: 1 μM compound, normalized to maximum signal of Compound 2 (positive control) and DMSO background; for activation at 1 µM: read-out: Normalized AlphaLISA ternary complex average signal at 1 μM molecule
T1 sequence (Q8TDX7 whole entry): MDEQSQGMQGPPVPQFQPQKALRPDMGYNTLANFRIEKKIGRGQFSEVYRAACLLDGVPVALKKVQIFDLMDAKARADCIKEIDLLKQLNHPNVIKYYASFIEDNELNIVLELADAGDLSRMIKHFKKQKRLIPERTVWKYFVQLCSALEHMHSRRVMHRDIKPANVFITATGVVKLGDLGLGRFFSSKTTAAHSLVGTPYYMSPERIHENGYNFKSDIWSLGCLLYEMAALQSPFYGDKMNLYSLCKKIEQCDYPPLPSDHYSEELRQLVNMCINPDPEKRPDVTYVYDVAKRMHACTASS
T1 sequence (Q96SW2 whole entry): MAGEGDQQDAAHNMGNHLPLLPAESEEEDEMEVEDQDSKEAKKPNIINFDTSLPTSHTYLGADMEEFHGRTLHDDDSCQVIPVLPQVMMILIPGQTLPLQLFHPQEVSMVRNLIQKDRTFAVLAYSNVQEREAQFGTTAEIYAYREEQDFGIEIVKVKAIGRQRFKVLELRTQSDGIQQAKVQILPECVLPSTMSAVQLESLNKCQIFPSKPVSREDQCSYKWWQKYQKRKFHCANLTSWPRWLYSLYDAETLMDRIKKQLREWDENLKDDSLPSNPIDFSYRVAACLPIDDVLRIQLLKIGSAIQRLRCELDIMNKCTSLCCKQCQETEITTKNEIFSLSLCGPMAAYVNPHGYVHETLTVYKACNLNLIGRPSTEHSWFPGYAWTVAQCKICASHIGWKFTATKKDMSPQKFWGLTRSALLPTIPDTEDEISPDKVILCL
T1 sequence (Q16531 whole entry partner): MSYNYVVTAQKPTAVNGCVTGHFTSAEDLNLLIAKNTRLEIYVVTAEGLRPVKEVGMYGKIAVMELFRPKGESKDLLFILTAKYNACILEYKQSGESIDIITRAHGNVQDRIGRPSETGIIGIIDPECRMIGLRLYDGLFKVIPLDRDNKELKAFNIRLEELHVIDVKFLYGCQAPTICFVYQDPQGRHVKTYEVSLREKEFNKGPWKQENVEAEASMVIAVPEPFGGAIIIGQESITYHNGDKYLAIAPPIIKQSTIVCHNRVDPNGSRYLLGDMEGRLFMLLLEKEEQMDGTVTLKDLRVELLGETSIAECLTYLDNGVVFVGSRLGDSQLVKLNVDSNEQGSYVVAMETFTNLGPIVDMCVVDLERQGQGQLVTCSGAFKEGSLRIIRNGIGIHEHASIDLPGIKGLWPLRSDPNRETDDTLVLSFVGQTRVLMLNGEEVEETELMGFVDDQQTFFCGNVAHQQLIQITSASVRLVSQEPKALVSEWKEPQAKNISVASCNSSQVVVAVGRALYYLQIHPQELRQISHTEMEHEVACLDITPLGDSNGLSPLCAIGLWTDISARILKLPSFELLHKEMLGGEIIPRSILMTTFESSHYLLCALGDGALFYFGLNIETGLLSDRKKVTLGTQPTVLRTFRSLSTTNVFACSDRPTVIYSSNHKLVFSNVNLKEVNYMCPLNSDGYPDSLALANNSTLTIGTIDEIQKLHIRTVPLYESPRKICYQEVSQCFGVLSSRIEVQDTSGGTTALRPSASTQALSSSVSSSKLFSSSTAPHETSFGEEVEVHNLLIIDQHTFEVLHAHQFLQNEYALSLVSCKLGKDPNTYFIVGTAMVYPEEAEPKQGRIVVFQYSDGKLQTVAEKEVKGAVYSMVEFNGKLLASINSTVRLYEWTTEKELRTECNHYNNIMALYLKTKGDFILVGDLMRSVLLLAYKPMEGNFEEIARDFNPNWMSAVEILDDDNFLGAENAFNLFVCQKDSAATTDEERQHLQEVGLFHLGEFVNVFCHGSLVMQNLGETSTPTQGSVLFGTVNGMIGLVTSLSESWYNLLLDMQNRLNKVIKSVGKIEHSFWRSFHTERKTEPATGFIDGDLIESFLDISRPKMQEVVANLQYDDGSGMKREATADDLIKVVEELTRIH
Protocol: The effect of the molecular glue compounds of the invention on the formation of a ternary complex composed of [NEK7]-[compound of formula (I)]-[CRBN/DDB1] was investigated with two methods: AlphaLISA dose response assay or HTRF ternary complex assay.
Two types of protein solution were prepared: • 200 nM biotinylated NEK7, 40 μg/ml AlphaScreen Streptavidin-coated Donor Beads in HBS (10 mM HEPES, 150 mM NaCL, pH 7.4) buffer with 0.1% Tween-20 and 1 mM DTT, • 200 nM 6×His-CRBN/Strep-DDB1, 40 μg/ml AlphaLISA Anti-6×His Acceptor beads in HBS buffer with 0.1% Tween-20 and 1 mM DTT.
The prepared solutions were incubated at room temperature for 30 min and then the solution containing the donor beads was mixed with the solution containing the acceptor beads.
The tested compounds were dispensed onto a white 384-well AlphaPlate 384 SW. DMSO was backfilled to all wells, resulting in a final DMSO content of 2%. Wells containing only DMSO served as background. Next, 10 μl of solution with donor and acceptor beads was added to the wells.
The plate was sealed with transparent film and shaken using a VibroTurbulator for 60 sec at room temperature, level 3. The plate was then spun down shortly (10 s, 1000 rcf, room temperature) and incubated at 25° C. for 30 min.
The read-out was performed with PerkinElmer Enspire Multimode Plate Reader (method for AlphaLISA 384-well low volume, Filterset: λexc=680 nm, λem=615 nm).
The results were analyzed as follows: • 1) an average of luminescence for background signal was calculated and used as a negative control; • 2) average of the maximum measured luminescence for Compound 2 was calculated and used as an internal positive control; • 3) raw luminescence values were normalized against positive and negative controls; • 4) Normalized responses to Compound 2 were determined.

[2] = biological target: T1, [NEK7]-[compound of formula (I)]-[CRBN/DDB1] complex; assay: HTRF ternary complex assay; format: binding; conditions: dose-response, 180 min at 25° C.; for EC50: read-out: HTRF ternary complex Average pEC50 by molecule (converted)
Protocol: The effect of the molecular glue compounds of the invention on the formation of a ternary complex composed of [NEK7]-[compound of formula (I)]-[CRBN/DDB1] was investigated.
Mix solution of proteins and reagents was prepared: • 24 nM NEK7, 52.8 nM 6×His-CRBN/Strep-DDB1, 3 nM of Streptavidin-Eu cryptate […] and 6.67 nM of Anti-6×his-d2 […] was prepared in PPI Europium detection buffer (Cisbio) with 1 mM DTT.
The tested compounds in dose-response were dispensed onto a white 384-well low volume plate (Greiner, 784075). DMSO was backfilled to all wells, resulting in a final DMSO content of 0.5%. Wells containing only DMSO served as background.
The plate was sealed with transparent film and shaken using a VibroTurbulator for 60 sec at level 3.
The plate was then spun down shortly (10 s, 1000 rcf) and incubated at 25° C. for 180 min.
The read-out was performed with plate reader (Pherastar, BMG Labtech) in time resolved fluorescence mode. Filterset: TR 337 665 620.
The results were analyzed as follows: • 1) an average of fluorescence for background signal was calculated and used as a negative control; • 2) raw fluorescence values for tested compounds were normalized against negative controls; • 3) saturation curve was fitted to specific binding with Hill slope model; • 4) EC50 and pEC50 values were determined.

NEK7-HiBiT protein = NEK7-HiBiT protein (Homo sapiens, UniProt Q8TDX7); assay: NEK7-HiBiT degradation assay (Nano-Glo HiBiT Lytic Assay) in HEK293 NEK7-HiBiT cells; format: cell-based; conditions: 24 h, conc. 0.1, 1 and 10 μM tested, concentration of the table values not stated, mean of 3 technical replicates
Chain of NEK7-HiBiT protein (Q8TDX7 whole entry): as the sequence (Q8TDX7 whole entry) above
Chain of NEK7-HiBiT protein (Q96SW2 whole entry, further chain): as the sequence (Q96SW2 whole entry) above
Chain of NEK7-HiBiT protein (Q16531 whole entry partner): as the sequence (Q16531 whole entry partner) above
Protocol: HEK293 NEK7-HiBiT cells were generated using CRISPR-Cas9 system. HEK293 cells were transformed with pSpCas9-BB-2A-Puro v2.0 plasmid carrying gRNA targeting the N-terminus of NEK7 and ssODN template containing the HiBiT tag sequence with flanking homology sequences. Neon Transfection System (Thermo Fisher Scientific) was used for electroporation. HEK293 NEK7-HiBiT cells were cultured with DMEM Glutamax (Gibco) supplemented with 10% heat inactivated FBS (Gibco). After transfection the culture medium was changed to DMEM Glutamax with 10% heat-inactivated FBS and 1% Penicillin-Streptomycin (Biowest) supplemented with Puromycin (2 μg/ml; Invivogen) for clonal selection. In order to isolate single cell clones for further validation and analysis, limiting dilution cloning in 96-well plates was performed. When the single clones reached confluency, HiBiT Lytic Assay (Promega) was performed in order to identify HiBiT positive clones. The clone selected for further studies was verified and validated using genotyping and HiBiT Blotting (Promega).
Selected clone of HEK293 NEK7-HiBiT cells was maintained in the DMEM-Glutamax medium supplemented with 10% of heat-inactivated FBS (Gibco) and 1% of Penicillin-Streptomycin Solution 100x (Biowest) at 37° C., 5% CO2 and subcultured every 2-3 days.
For Nano-Glo HiBiT Lytic Assay HEK293 NEK7-HiBiT cells were seeded at the density 2×10^3 cells in triplicates in the 40 μL of growth medium per single well on 384 well plate (Greiner Bio-One). Compounds or DMSO were added to treatment plates using Echo555 Liquid Handler and incubated at 37° C., 5% CO2 for 24 hours. After incubation 40 μL of Nano-Glo HiBiT Lytic Reagent (prepared according to the manufacturer protocol) were added to 40 μL of the cell culture medium present in each well. The plate content was briefly mixed (460 rpm) on an orbital shaker to ensure cell lysis. The plate was left at RT protected from light for another 10 min to stabilize the luminescent signal. The luminescence signal was measured using CLARIOstar Multimode Plate Reader. Focus and gain were adjusted to DMSO treated cells. The results were calculated as the NEK7-HiBiT % relative to the DMSO control of 3 technical replicates relative to the DMSO control.
HEK293 NEK7-HiBiT cells were treated with the compounds (conc. 0.1, 1 and 10 μM) or DMSO for 24 h. After incubation with compounds NEK7-HiBiT degradation was measured as a luminescence signal using CLARIOstar Multimode Plate reader.
Additionally, compounds reducing NEK7-HiBiT protein level by >=50% at 0.1 μM, were also identified.

Row | Compound | activation at 1 µM [1] | EC50 [2] | Normalized AlphaLISA ternary complex average signal at 1 μM molecule [1] | HTRF ternary complex Average pEC50 by molecule [2] | Levels of NEK7-HiBiT Protein (as a % of DMSO control) (NEK7-HiBiT protein)
1 | 3-(5-((2R,6R)-6-butyltetrahydro-2H-pyran-2-yl)-1-oxoisoindolin-2-yl)piperidine-2,6-dione and 3-(5-((2S,6S)-6-butyltetrahydro-2H-pyran-2-yl)-1-oxoisoindolin-2-yl)piperidine-2,6-dione [69 Isomer 2] | – | – | B (Normalized activity > 20% and <80%) | ++++ (7.0 > pEC50 > 6.5) | B (Levels of NEK7-HiBiT Protein > 25% and ≤50%)
2 | 3-(5-((2R,6S)-6-butyltetrahydro-2H-pyran-2-yl)-1-oxoisoindolin-2-yl)piperidine-2,6-dione and 3-(5-((2S,6R)-6-butyltetrahydro-2H-pyran-2-yl)-1-oxoisoindolin-2-yl)piperidine-2,6-dione [69 Isomer 1] | – | – | A (Normalized activity > 80%) | +++ (6.5 > pEC50 > 6.0) | A (Levels of NEK7-HiBiT Protein ≤ 25%)
3 | CCCCC1CCC(c2ccc3c(c2)CN(C2CCC(=O)NC2=O)C3=O)NC1 (mixture of isomers) [Compound 37, 3-(5-(5-butylpiperidin-2-yl)-1-oxoisoindolin-2-yl)piperidine-2,6-dione] | > 80% | 100 to 316 nM | – | – | B (Levels of NEK7-HiBiT Protein > 25% and ≤50%)
4 | CC(=O)NC1CCC(c2ccc3c(c2)CN(C2CCC(=O)NC2=O)C3=O)NC1 (single isomer, unassigned) [33 Isomer 1, N-(6-(2-(2,6-dioxopiperidin-3-yl)-1-oxoisoindolin-5-yl)piperidin-3-yl)acetamide] | 20 to 80% | 100 to 316 nM | – | – | A (Levels of NEK7-HiBiT Protein ≤ 25%)
5 | O=C1CCC(N2Cc3cc(C4CCC(Cc5ccccc5)CN4)ccc3C2=O)C(=O)N1 (single isomer, unassigned) [35 Isomer 2, 3-(5-(5-benzylpiperidin-2-yl)-1-oxoisoindolin-2-yl)piperidine-2,6-dione] | – | – | – | – | B (Levels of NEK7-HiBiT Protein > 25% and ≤50%)
6 | CC(C)(C)C(=O)OCN1C(=O)CCC(N2Cc3cc(C4CCCCN4)ccc3C2=O)C1=O (centres unmarked) [Compound 63, (2,6-dioxo-3-(1-oxo-5-(piperidin-2-yl)isoindolin-2-yl)piperidin-1-yl)methyl pivalate] | – | – | – | – | A (Levels of NEK7-HiBiT Protein ≤ 25%)

Now from value to compound, other results behind:

Row | activation at 1 µM [1] | EC50 [2] | Compound | Normalized AlphaLISA ternary complex average signal at 1 μM molecule [1] | HTRF ternary complex Average pEC50 by molecule [2] | Levels of NEK7-HiBiT Protein (as a % of DMSO control) (NEK7-HiBiT protein)
7 | > 80% | 100 to 316 nM | CCCCC1CCCC(c2ccc3c(c2)CN(C2CCC(=O)NC2=O)C3=O)N1 (mixture of isomers) [Compound 40, 3-(5-(6-butylpiperidin-2-yl)-1-oxoisoindolin-2-yl)piperidine-2,6-dione] | – | – | A (Levels of NEK7-HiBiT Protein ≤ 25%)
8 | – | > 3160 nM | O=C1CCC(N2Cc3cc(C4CCC(c5ccccc5)CN4)ccc3C2=O)C(=O)N1 (single isomer, unassigned) [32 Isomer 1, 3-(1-oxo-5-(5-phenylpiperidin-2-yl)isoindolin-2-yl)piperidine-2,6-dione] | C (Normalized activity > 10% and <20%) | – | D (Levels of NEK7-HiBiT Protein ≥ 75%)
9 | – | 316 to 1000 nM | O=C1CCC(N2Cc3cc(C4CCC(c5ccccc5)CN4)ccc3C2=O)C(=O)N1 (single isomer, unassigned) [32 Isomer 2, 3-(1-oxo-5-(5-phenylpiperidin-2-yl)isoindolin-2-yl)piperidine-2,6-dione] | A (Normalized activity > 80%) | – | A (Levels of NEK7-HiBiT Protein ≤ 25%)
